Measurements as given in patent publication US10815222B2, “Compounds for use in the treatment of kinetoplastid infection” (C.N.C.C.S. S.c.a.r.l. COLLEZIONE NAZIONALE DEI COMPOSTI …, priority 2016, dated 2020).

tested on: Bloodstream form of Trypanosoma brucei, strain Lister 427; test: Trypanosoma brucei growth inhibition assay (CellTiter-Glo, 24 h); type: cell-based; conditions: Trypanosoma brucei; T. Brucei Growth Inibition Assay, class symbols; read-out: T. Brucei GI EC50
How it was run: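 Growth read-out was CellTiter-Glo luminescence after 24 h at 37 °C incubation of 1500 bloodstream-form Lister 427 trypanosomes per well with compound, in supplemented IMDM containing 10% FBS and at most 0.25% DMSO.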

SMILES	EC50
COc1ccc2[nH]c(C)c(CC(=O)N3CCN(C)CCC3c3ncc(-c4ccc5ccccc5c4)[nH]3)c2c1 (stereo not shown) [2-(5-methoxy-2-methyl-1H-indol-3-yl)-1-(4-methyl-7-(5-(naphthalen-2-yl)-1H-imidazol-2-yl)-1,4-diazepan-1-yl)ethan-1-one]	0.1 to 0.5 µM
COc1ccc2nc(C(F)(F)F)n(CC(=O)N3CC[C@H](NCC(C)C)C[C@H]3c3ncc(-c4cc5ccccc5nc4OC)[nH]3)c2c1 [1-((2S,4S)-4-(isobutylamino)-2-(5-(2-methoxyquinolin-3-yl)-1H-imidazol-2-yl)piperidin-1-yl)-2-(6-methoxy-2-(trifluoromethyl)-1H-benzo[d]imidazol-1-yl)ethan-1-one]	< 0.1 µM
COc1ccc2nc(C)n(CC(=O)N3CCN(CC4COC4)C[C@H]3c3ncc(-c4cc5ccccc5nc4OC)[nH]3)c2c1 [(S)-2-(6-methoxy-2-methyl-1H-benzo[d]imidazol-1-yl)-1-(2-(5-(2-methoxyquinolin-3-yl)-1H-imidazol-2-yl)-4-(oxetan-3-ylmethyl)piperazin-1-yl)ethan-1-one]	< 0.1 µM
COc1ccc2nc(C)n(CC(=O)N3CCN(CC4CCOC4)C[C@H]3c3ncc(-c4cc5ccccc5n4C(=O)OC(C)(C)C)[nH]3)c2c1 (stereo partly shown)	1.01 to 5 µM
COc1nc2ccccc2cc1-c1cnc(C2CN(CC3CCOC3)CCN2C(=O)c2ccc3ncccc3c2)[nH]1 (stereo not shown)	1.01 to 5 µM
CCN(C1CCOC1)[C@H]1CCN(C(=O)Cn2c(C(F)(F)F)nc3ccc(OC)cc32)[C@H](c2ncc(-c3cc4ccccc4nc3OC)[nH]2)C1 (stereo partly drawn) [1-((2S,4S)-4-(ethyl(tetrahydrofuran-3-yl)amino)-2-(5-(2-methoxyquinolin-3-yl)-1H-imidazol-2-yl)piperidin-1-yl)-2-(6-methoxy-2-(trifluoromethyl)-1H-benzo[d]imidazol-1-yl)ethan-1-one]	< 0.1 µM
CN1CCN(S(=O)(=O)Cc2ccccc2)C(c2ncc(-c3ccc4ccccc4c3)[nH]2)C1 (stereo not shown) [1-(benzylsulfonyl)-4-methyl-2-(5-(naphthalen-2-yl)-1H-imidazol-2-yl)piperazine]	1.01 to 5 µM
COc1ccc2nc(C(F)(F)F)n(CC(=O)N3CCN(Cc4nccs4)C[C@H]3c3ncc(-c4cc5ccccc5nc4OC)[nH]3)c2c1 [(S)-2-(6-methoxy-2-(trifluoromethyl)-1H-benzo[d]imidazol-1-yl)-1-(2-(5-(2-methoxyquinolin-3-yl)-1H-imidazol-2-yl)-4-(thiazol-2-ylmethyl)piperazin-1-yl)ethan-1-one]	< 0.1 µM
COc1ccc2c(c1)[C@H](CC(=O)N1CCN(C)CC1c1ncc(-c3ccc4ccccc4c3)[nH]1)C(=O)N2 (stereo partly shown)	1.01 to 5 µM
COc1ccc2nc(C(F)(F)F)n(CC(=O)N3CC[C@H](NCc4cncn4C)C[C@H]3c3ncc(-c4cc5ccccc5nc4OC)[nH]3)c2c1 [2-(6-methoxy-2-(trifluoromethyl)-1H-benzo[d]imidazol-1-yl)-1-((2S,4S)-2-(5-(2-methoxyquinolin-3-yl)-1H-imidazol-2-yl)-4-(((1-methyl-1H-imidazol-5-yl)methyl)amino)piperidin-1-yl)ethan-1-one]	< 0.1 µM
COc1ccc2nc(C(F)(F)F)n(CC(=O)N3CCN(CCc4ccnn4C)CCC3c3ncc(-c4cc5ccccc5nc4OC)[nH]3)c2c1 (stereo not shown) [2-(6-methoxy-2-(trifluoromethyl)-1H-benzo[d]imidazol-1-yl)-1-(7-(5-(2-methoxyquinolin-3-yl)-1H-imidazol-2-yl)-4-(2-(1-methyl-1H-pyrazol-5-yl)ethyl)-1,4-diazepan-1-yl)ethan-1-one]	< 0.1 µM
COc1ccc2nc(C(F)(F)F)n(CC(=O)N3CC[C@H](NCc4ccon4)C[C@H]3c3ncc(-c4cc5ccccc5nc4OC)[nH]3)c2c1 [1-((2S,4S)-4-((isoxazol-3-ylmethyl)amino)-2-(5-(2-methoxyquinolin-3-yl)-1H-imidazol-2-yl)piperidin-1-yl)-2-(6-methoxy-2-(trifluoromethyl)-1H-benzo[d]imidazol-1-yl)ethan-1-one]	< 0.1 µM
COc1ccc2nc(C(F)(F)F)n(CC(=O)N3CCN(Cc4ncco4)CCC3c3ncc(-c4cc5ccccc5nc4OC)[nH]3)c2c1 (stereo not shown) [2-(6-methoxy-2-(trifluoromethyl)-1H-benzo[d]imidazol-1-yl)-1-(7-(5-(2-methoxyquinolin-3-yl)-1H-imidazol-2-yl)-4-(oxazol-2-ylmethyl)-1,4-diazepan-1-yl)ethan-1-one]	< 0.1 µM
COc1ccc2nc(C(F)(F)F)n(CC(=O)N3CC[C@H](NCc4cnoc4)C[C@H]3c3ncc(-c4cc5ccccc5nc4OC)[nH]3)c2c1 [1-((2S,4S)-4-((isoxazol-4-ylmethyl)amino)-2-(5-(2-methoxyquinolin-3-yl)-1H-imidazol-2-yl)piperidin-1-yl)-2-(6-methoxy-2-(trifluoromethyl)-1H-benzo[d]imidazol-1-yl)ethan-1-one]	< 0.1 µM
COc1nc2ccccc2cc1-c1cnc(C2CNCCN2C(=O)Cc2c(C)[nH]c3ccc(F)cc23)[nH]1 (stereo not shown) [2-(5-fluoro-2-methyl-1H-indol-3-yl)-1-(2-(5-(2-methoxyquinolin-3-yl)-1H-imidazol-2-yl)piperazin-1-yl)ethan-1-one]	1.01 to 5 µM
COc1ccc2nc(C)n(CC(=O)N3CCN(C)CCC3c3ncc(-c4cc5ccccc5nc4OC)[nH]3)c2c1 (stereo not shown)	1.01 to 5 µM
COc1ccc2nc(C(F)(F)F)n(CC(=O)N3CC[C@H](NC4CCOC4)C[C@H]3c3ncc(-c4cc5ccccc5nc4OC)[nH]3)c2c1 (stereo partly drawn) [2-(6-methoxy-2-(trifluoromethyl)-1H-benzo[d]imidazol-1-yl)-1-((2S,4S)-2-(5-(2-methoxyquinolin-3-yl)-1H-imidazol-2-yl)-4-((tetrahydrofuran-3-yl)amino)piperidin-1-yl)ethan-1-one]	< 0.1 µM
COc1nc2ccccc2cc1-c1cnc(C2CN(S(=O)(=O)N(C)C)CCN2C(=O)Cc2c(C)[nH]c3ccc(F)cc23)[nH]1 (stereo not shown) [4-(2-(5-fluoro-2-methyl-1H-indol-3-yl)acetyl)-3-(5-(2-methoxyquinolin-3-yl)-1H-imidazol-2-yl)-N,N-dimethylpiperazine-1-sulfonamide]	1.01 to 5 µM
COc1ccc2nc(C(F)(F)F)n(CC(=O)N3CCN(CCn4cccn4)CCC3c3ncc(-c4cc5ccccc5nc4OC)[nH]3)c2c1 (stereo not shown) [1-(4-(2-(1H-pyrazol-1-yl)ethyl)-7-(5-(2-methoxyquinolin-3-yl)-1H-imidazol-2-yl)-1,4-diazepan-1-yl)-2-(6-methoxy-2-(trifluoromethyl)-1H-benzo[d]imidazol-1-yl)ethan-1-one]	< 0.1 µM

SMILES	EC50
COc1ccc2nc(C)n(CC(=O)N3CC[C@H](NCc4ccn(C)n4)C[C@H]3c3ncc(-c4cc5ccccc5nc4OC)[nH]3)c2c1	1.01 to 5 µM
COc1nc2ccccc2cc1-c1cnc(C2CN(C(=O)C3CCN(C)CC3)CCN2C(=O)Cc2c(C)[nH]c3ccc(F)cc23)[nH]1 (stereo not shown)	1.01 to 5 µM
COc1ccc2nc(C)n(CC(=O)N3CCN(C4CCS(=O)(=O)CC4)C[C@H]3c3ncc(-c4cc5ccccc5nc4OC)[nH]3)c2c1	0.51 to 1 µM
COc1ccc2[nH]c(C)c(CC(=O)N3CCN(Cc4ccn(C)n4)CCC3c3ncc(-c4cc5ccccc5nc4OC)[nH]3)c2c1 (stereo not shown) [2-(5-methoxy-2-methyl-1H-indol-3-yl)-1-(7-(5-(2-methoxyquinolin-3-yl)-1H-imidazol-2-yl)-4-((1-methyl-1H-pyrazol-3-yl)methyl)-1,4-diazepan-1-yl)ethan-1-one]	< 0.1 µM
COc1ccc2nc(C)n(CC(=O)N3CCN(Cc4nnc(C)o4)C[C@H]3c3ncc(-c4cc5ccccc5nc4OC)[nH]3)c2c1	0.1 to 0.5 µM
COc1ccc2nc(C(F)(F)F)n(CC(=O)N3CC[C@H](NCc4ccn(C)n4)C[C@H]3c3ncc(-c4cc5ccccc5nc4OC)[nH]3)c2c1 [2-(6-methoxy-2-(trifluoromethyl)-1H-benzo[d]imidazol-1-yl)-1-((2S,4S)-2-(5-(2-methoxyquinolin-3-yl)-1H-imidazol-2-yl)-4-(((1-methyl-1H-pyrazol-3-yl)methyl)amino)piperidin-1-yl)ethan-1-one]	< 0.1 µM
COc1ccc2nc(C(F)(F)F)n(CC(=O)N3CCN(Cc4cnn(C)c4C)CCC3c3ncc(-c4cc5ccccc5nc4OC)[nH]3)c2c1 (stereo not shown)	0.1 to 0.5 µM
CN1CCN(C(=O)Cc2ccccc2)C(c2ncc(-c3ccc4ccccc4c3)[nH]2)C1 (stereo not shown)	1.01 to 5 µM
COc1nc2ccccc2cc1-c1cnc(C2CN(C(=O)c3cnn(C(C)C)c3)CCN2C(=O)Cc2c(C)[nH]c3ccc(F)cc23)[nH]1 (stereo not shown)	1.01 to 5 µM
COc1nc2ccccc2cc1-c1cnc([C@@H]2CCN(Cc3ccn(C)n3)CCN2C(=O)[C@@](OC)(c2ccccc2)C(F)(F)F)[nH]1	1.01 to 5 µM
COc1nc2ccccc2cc1-c1cnc(C2CN(CC3CCOC3)CCN2C(=O)Cn2c(=O)ncc3ccccc32)[nH]1 (stereo not shown)	1.01 to 5 µM
COc1nc2ccccc2cc1-c1cnc(C2CS(=O)(=O)CCN2C(=O)Cn2c(C)nc3ccccc32)[nH]1 (stereo not shown)	1.01 to 5 µM
CCC(=O)CCCN1CCN(C(=O)Cc2c[nH]c3ncccc23)C(c2ncc(-c3cc4ccccc4nc3OC)[nH]2)C1 (stereo not shown)	0.51 to 1 µM
CCC(=O)CCCN1CCN(C(=O)C2CCN(C)CC2)C(c2ncc(-c3ccc4ccccc4c3)[nH]2)C1 (stereo not shown)	1.01 to 5 µM
COc1nc2ccccc2cc1-c1cnc(C2CN(Cc3cnccn3)CCN2C(=O)Cc2c(C)[nH]c3ccc(F)cc23)[nH]1 (stereo not shown) [2-(5-fluoro-2-methyl-1H-indol-3-yl)-1-(2-(5-(2-methoxyquinolin-3-yl)-1H-imidazol-2-yl)-4-(pyrazin-2-ylmethyl)piperazin-1-yl)ethan-1-one]	< 0.1 µM
COc1ccc2nc(C(F)(F)F)n(CC(=O)N3CC[C@H](NCCO)C[C@H]3c3ncc(-c4cc5ccccc5nc4OC)[nH]3)c2c1 [1-((2S,4S)-4-((2-hydroxyethyl)amino)-2-(5-(2-methoxyquinolin-3-yl)-1H-imidazol-2-yl)piperidin-1-yl)-2-(6-methoxy-2-(trifluoromethyl)-1H-benzo[d]imidazol-1-yl)ethan-1-one]	< 0.1 µM
COc1ccc2nc(O)cc(C(=O)N3CCN(CC4CCOC4)CC3c3ncc(-c4cc5ccccc5nc4OC)[nH]3)c2c1 (stereo not shown)	1.01 to 5 µM
COc1ccc2nc(C)n(CC(=O)N3CCN(CC4CCOC4)C[C@H]3c3ncc(C#Cc4ccccn4)[nH]3)c2c1 (stereo partly drawn) [2-(6-methoxy-2-methyl-1H-benzo[d]imidazol-1-yl)-1-((2S)-2-(5-(pyridin-2-ylethynyl)-1H-imidazol-2-yl)-4-((tetrahydrofuran-3-yl)methyl)piperazin-1-yl)ethan-1-one]	1.01 to 5 µM
